Data on 16 compounds can be found in ChEMBL document CHEMBL4396940, “Synthesis and biological evaluation of 4-(piperid-3-yl)amino substituted 6-pyridylquinazolines as potent PI3Kδ inhibitors” (Bioorg Med Chem, 2019).

The test system of one test is SU-DHL-6. As to the kind of experiment: Antiproliferative activity against human SUDHL6 cells by MTT assay. In kind it is functional, cell-based.
The target of test [1] is T1, Phosphatidylinositol 4,5-bisphosphate 3-kinase catalytic subunit delta isoform (Homo sapiens, UniProt O00329).
T1 sequence (O00329 whole entry): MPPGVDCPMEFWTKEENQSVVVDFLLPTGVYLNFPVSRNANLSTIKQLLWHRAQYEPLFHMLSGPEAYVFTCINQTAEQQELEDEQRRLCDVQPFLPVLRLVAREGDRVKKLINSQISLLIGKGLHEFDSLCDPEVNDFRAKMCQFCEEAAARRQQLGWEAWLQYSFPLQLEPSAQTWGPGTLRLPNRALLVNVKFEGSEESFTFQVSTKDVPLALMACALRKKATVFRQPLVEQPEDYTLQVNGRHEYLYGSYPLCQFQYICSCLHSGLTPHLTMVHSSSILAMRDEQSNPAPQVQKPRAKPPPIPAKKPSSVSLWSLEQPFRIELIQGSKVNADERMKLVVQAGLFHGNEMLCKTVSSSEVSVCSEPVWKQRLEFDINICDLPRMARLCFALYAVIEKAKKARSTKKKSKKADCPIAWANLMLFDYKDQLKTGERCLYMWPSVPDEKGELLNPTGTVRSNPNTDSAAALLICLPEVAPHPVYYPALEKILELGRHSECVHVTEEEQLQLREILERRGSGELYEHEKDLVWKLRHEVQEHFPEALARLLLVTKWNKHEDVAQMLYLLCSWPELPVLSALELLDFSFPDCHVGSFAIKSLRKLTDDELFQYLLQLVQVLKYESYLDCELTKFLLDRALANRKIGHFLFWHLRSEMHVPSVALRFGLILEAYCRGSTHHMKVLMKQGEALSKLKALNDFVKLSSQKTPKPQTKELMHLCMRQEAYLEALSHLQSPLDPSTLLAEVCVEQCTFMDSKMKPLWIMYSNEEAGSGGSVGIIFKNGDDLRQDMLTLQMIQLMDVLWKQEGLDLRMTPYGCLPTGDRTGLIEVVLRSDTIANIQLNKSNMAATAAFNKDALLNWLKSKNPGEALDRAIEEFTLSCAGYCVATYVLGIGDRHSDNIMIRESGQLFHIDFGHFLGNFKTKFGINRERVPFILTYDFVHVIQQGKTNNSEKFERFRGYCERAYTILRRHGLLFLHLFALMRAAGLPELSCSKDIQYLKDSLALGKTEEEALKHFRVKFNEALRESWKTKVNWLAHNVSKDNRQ
Put plainly: Inhibition of PI3K delta (unknown origin) using phosphatidyl inositol as substrate measured after 60 mins in presence of ATP by Kinase-Glo Plus reagent-based luminescence assay.

In another test the test system is HCT-116. As to the kind of experiment: cells. The settings on record: Homo sapiens.
For test [2], the target named is Phosphatidylinositol 4,5-bisphosphate 3-kinase catalytic subunit gamma isoform (Homo sapiens, UniProt P48736). Put plainly: Inhibition of PI3K gamma (unknown origin) using phosphatidyl inositol as substrate measured after 60 mins in presence of ATP by Kinase-Glo Plus reagent-based luminescence assay. On the technique in general: Kinase-Glo measures the ATP left after a reaction by luminescence.
Phosphatidylinositol 4,5-bisphosphate 3-kinase catalytic subunit gamma isoform, sequence (P48736 whole entry, canonical isoform): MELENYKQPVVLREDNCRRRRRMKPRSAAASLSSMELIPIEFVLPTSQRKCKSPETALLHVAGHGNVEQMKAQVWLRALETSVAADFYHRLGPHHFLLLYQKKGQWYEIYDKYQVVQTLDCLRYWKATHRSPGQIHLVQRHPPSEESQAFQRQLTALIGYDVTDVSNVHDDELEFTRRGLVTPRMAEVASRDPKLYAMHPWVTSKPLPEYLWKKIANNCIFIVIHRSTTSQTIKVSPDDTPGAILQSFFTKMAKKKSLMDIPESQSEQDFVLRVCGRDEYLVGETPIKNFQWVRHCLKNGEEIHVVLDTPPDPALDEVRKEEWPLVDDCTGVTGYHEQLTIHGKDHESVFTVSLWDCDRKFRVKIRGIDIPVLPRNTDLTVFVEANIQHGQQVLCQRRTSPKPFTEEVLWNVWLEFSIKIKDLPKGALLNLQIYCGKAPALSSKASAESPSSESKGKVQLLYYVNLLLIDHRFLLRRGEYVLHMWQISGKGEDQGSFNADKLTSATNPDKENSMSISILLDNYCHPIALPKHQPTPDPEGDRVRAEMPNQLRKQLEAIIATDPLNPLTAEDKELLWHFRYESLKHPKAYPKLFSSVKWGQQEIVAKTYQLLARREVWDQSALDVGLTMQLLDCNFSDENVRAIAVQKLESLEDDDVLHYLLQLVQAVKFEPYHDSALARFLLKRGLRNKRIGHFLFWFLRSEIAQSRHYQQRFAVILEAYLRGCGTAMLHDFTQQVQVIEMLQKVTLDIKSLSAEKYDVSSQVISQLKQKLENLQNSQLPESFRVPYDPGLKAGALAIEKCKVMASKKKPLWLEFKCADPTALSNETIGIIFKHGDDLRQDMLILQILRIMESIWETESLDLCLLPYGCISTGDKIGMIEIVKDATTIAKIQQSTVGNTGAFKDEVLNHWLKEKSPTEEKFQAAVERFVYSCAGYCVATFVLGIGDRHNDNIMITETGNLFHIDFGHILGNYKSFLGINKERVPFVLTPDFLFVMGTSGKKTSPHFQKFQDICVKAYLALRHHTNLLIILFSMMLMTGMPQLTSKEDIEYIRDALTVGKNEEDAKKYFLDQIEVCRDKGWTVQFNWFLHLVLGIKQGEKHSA

The target in test [3] is T2, Phosphatidylinositol 4,5-bisphosphate 3-kinase catalytic subunit delta isoform (Homo sapiens) (UniProt O00329).
T2 sequence (whole entry): T1 sequence (O00329 whole entry)
Put plainly: Inhibition of PI3K delta in human SUDHL6 cells assessed as reduction in AKT phosphorylation at S473 measured after 8 hrs by Western blot analysis. In kind it is cell-based. A general note: Immunoblotting shows a protein as a band on a membrane.

Test [4] concerns the target Phosphatidylinositol 4,5-bisphosphate 3-kinase catalytic subunit beta isoform (Homo sapiens, UniProt P42338). As to the kind of experiment: Inhibition of PI3K beta (unknown origin) using phosphatidyl inositol as substrate measured after 60 mins in presence of ATP by Kinase-Glo Plus reagent-based luminescence assay.
In another test the test system is Raji. As to the kind of experiment: Antiproliferative activity against human Raji cells by MTT assay. In kind it is functional, cell-based.
Test [5] concerns the target Phosphatidylinositol 4,5-bisphosphate 3-kinase catalytic subunit alpha isoform (Homo sapiens, UniProt P42336). As to the kind of experiment: Inhibition of PI3K alpha (unknown origin) using phosphatidyl inositol as substrate measured after 60 mins in presence of ATP by Kinase-Glo Plus reagent-based luminescence assay.
Another test has as its system MCF7. As to the kind of experiment: cells. The settings on record: Homo sapiens.
The subject of another test is Ramos. Put plainly: Antiproliferative activity against human Ramos cells by MTT assay. In kind it is functional, cell-based. On the technique in general: Tetrazolium dyes change colour on reduction, which living cells bring about.
The target of test [6] is T1, Phosphatidylinositol 4,5-bisphosphate 3-kinase catalytic subunit delta isoform. As to the kind of experiment: Inhibition of PI3K delta (unknown origin).

pIC50: −log10 of the molar value.

Phosphatidylinositol 4,5-bisphosphate 3-kinase catalytic subunit beta isoform, sequence (P42338 whole entry, canonical isoform): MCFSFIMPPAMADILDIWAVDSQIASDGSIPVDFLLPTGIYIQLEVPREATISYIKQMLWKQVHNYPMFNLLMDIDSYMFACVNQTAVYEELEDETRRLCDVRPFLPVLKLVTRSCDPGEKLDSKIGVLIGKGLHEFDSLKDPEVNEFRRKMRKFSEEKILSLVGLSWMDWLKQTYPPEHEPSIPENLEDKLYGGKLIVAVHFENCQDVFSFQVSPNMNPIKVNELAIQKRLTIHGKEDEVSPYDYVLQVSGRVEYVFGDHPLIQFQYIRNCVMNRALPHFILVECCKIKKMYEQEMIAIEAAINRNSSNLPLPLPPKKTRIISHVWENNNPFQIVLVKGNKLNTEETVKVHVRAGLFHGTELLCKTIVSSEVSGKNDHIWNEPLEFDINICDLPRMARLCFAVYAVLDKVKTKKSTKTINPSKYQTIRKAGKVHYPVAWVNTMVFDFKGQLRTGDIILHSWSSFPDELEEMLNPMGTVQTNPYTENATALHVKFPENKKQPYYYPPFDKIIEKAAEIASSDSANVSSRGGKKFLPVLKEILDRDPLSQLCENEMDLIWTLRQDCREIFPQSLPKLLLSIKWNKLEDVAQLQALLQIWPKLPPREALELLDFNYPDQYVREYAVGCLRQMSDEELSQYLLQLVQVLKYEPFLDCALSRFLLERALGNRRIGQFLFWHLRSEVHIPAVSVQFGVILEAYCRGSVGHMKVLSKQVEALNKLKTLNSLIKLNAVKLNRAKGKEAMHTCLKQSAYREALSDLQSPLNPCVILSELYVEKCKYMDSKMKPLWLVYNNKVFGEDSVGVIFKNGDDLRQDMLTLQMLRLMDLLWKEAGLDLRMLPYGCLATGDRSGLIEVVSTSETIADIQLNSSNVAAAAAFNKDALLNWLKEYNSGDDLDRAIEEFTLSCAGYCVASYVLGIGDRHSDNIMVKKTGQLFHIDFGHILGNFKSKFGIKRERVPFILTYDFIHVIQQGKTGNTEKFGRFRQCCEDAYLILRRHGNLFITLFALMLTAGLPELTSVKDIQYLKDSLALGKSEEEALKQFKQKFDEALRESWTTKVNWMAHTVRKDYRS
Phosphatidylinositol 4,5-bisphosphate 3-kinase catalytic subunit alpha isoform, sequence (P42336 whole entry, canonical isoform): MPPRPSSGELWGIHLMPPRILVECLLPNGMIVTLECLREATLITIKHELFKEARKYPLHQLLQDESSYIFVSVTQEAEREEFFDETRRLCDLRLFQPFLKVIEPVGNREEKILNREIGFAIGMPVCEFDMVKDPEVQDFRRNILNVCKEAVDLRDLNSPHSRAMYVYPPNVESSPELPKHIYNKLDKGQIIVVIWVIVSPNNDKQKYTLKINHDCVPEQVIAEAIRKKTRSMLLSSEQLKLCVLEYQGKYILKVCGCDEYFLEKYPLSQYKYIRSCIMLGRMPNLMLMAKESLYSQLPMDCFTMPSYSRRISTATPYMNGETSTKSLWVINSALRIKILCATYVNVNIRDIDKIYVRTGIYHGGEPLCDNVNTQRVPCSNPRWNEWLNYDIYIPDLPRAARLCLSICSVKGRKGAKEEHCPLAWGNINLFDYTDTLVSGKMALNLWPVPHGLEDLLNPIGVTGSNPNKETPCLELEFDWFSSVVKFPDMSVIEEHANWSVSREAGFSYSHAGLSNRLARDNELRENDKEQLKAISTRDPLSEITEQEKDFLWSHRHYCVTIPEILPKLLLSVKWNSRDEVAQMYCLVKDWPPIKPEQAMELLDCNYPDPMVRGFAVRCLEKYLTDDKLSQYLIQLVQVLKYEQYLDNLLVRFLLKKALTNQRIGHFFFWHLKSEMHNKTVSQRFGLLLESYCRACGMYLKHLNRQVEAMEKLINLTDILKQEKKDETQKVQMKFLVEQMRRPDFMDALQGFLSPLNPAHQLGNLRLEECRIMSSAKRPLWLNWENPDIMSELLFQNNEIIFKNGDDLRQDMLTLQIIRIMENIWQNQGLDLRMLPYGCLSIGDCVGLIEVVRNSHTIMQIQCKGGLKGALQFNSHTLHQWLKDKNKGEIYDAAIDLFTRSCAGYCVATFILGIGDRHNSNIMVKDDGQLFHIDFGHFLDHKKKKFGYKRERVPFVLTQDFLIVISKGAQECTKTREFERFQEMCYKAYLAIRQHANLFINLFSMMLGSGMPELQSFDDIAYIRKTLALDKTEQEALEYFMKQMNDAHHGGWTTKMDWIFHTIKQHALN
Description for HCT-116: Antiproliferative activity against human HCT116 cells by MTT assay
Description for MCF7: Antiproliferative activity against human MCF7 cells by MTT assay

What is called pIC50 is the IC50 on a negative log10 scale, so that one unit is a factor of ten. For the compound `COc1ncc(-c2ccc3ncnc(N[C@H]4CCCN(C(=O)C5CCN(C)CC5)C4)c3c2)cc1C#N`, the negative-log IC50 (pIC50) with SU-DHL-6 is 6.38; in test [1], 8.03.
As for `COc1ncc(-c2ccc3ncnc(N[C@H]4CCCN(C(=O)CCl)C4)c3c2)cc1C#N`, the pIC50 in the test with SU-DHL-6 was 6.42; in [1] it was 8.05.
The like results for `COc1ncc(-c2ccc3ncnc(N[C@H]4CCCN(C(=O)C(F)(F)F)C4)c3c2)cc1[N+](=O)[O-]` were, in that order, 3.90 and 7.57.
Take `COc1ncc(-c2ccc3ncnc(N[C@H]4CCCN(C(=O)c5cccnc5)C4)c3c2)cc1C#N`: the pIC50 in the test on HCT-116 was less than 5.00; in [2] it was 8.70; in the test on SU-DHL-6 it was 6.92; in test [1] it was 9.15; in test [4] it was 8.04; in the test with Raji it was less than 5.00. Besides, the negative-log IC50 (pIC50) in test [5] is 6.92; in the test on MCF7 it was less than 5.00; with Ramos it was less than 5.00. The inhibition result in [3] was “Dose-dependent effect”.
`COc1ncc(-c2ccc3ncnc(N[C@H]4CCCN(C(=O)C5CCNCC5)C4)c3c2)cc1C#N`: the negative logarithm of the IC50 (pIC50) in the test with SU-DHL-6 was 5.61; in test [1], 8.60.
The like results for `COc1ncc(-c2ccc3ncnc(N[C@H]4CCCN(C(=O)C(F)(F)F)C4)c3c2)cc1C#N` were, in that order, 6.68 and 8.49.
The like results for `CCOC(=O)CN1CCC[C@H](Nc2ncnc3ccc(-c4cnc(OC)c(C(F)(F)F)c4)cc23)C1` were, in that order, 6.64 and 8.17.
Regarding `CC[C@H](Nc1ncnc2[nH]cnc12)c1nc2cccc(F)c2c(=O)n1-c1ccccc1` [IDELALISIB], the pIC50 was less than 5.00 in the test with HCT-116; 7.48 with SU-DHL-6; less than 5.00 with Raji; less than 5.00 with MCF7; less than 5.00 in the test with Ramos.
For the compound `COc1ncc(-c2ccc3ncnc(N[C@H]4CCCN(CCO)C4)c3c2)cc1C#N`, the results for the pIC50 (with SU-DHL-6; in test [1]) were 5.69 and 8.33, respectively.
With `COc1ncc(-c2ccc3ncnc(N[C@H]4CCCN(C(=O)CN(C)C)C4)c3c2)cc1C#N`, the pIC50 was less than 5.00 in the test on HCT-116; 6.60 in [2]; 6.80 with SU-DHL-6; 8.89 in [1]; 6.82 in test [4]; less than 5.00 with Raji. The pIC50 in test [5] is 7.66; with MCF7, less than 5.00; with Ramos, less than 5.00.
Consider `COc1ncc(-c2ccc3ncnc(N[C@H]4CCCN(C(=O)C5CCOCC5)C4)c3c2)cc1C#N`, for which the negative-log IC50 (pIC50) in the test on SU-DHL-6 was 6.82; in [1], 8.11.
Take `Cn1c(=O)n(-c2ccc(C(C)(C)C#N)cc2)c2c3cc(-c4cnc5ccccc5c4)ccc3ncc21` [DACTOLISIB]: the negative-log IC50 (pIC50) in the test with HCT-116 was 6.52; in the test with Raji, 6.28; in the test on MCF7 it was 6.70; with Ramos, 6.40.
Turning to `COc1ncc(-c2ccc3ncnc(N[C@H]4CCCN(C(=O)CCBr)C4)c3c2)cc1C#N`, the figures for the pIC50 (in the test with SU-DHL-6; in test [1]) were 7.82 and 7.84, respectively.
The like results for `CCOC(=O)CN1CCC[C@H](Nc2ncnc3ccc(-c4cnc(OC)c(C#N)c4)cc23)C1` were, in that order, 6.30 and 8.49.
For `COc1ncc(-c2ccc3ncnc(O[C@H]4CCN(C(=O)C5CCOCC5)C4)c3c2)cc1C#N`, the negative-log IC50 (pIC50) in test [6] was 8.31.
With `COc1ncc(-c2ccc3ncnc(N[C@H]4CCCN(C(=O)[C@H](C)N)C4)c3c2)cc1C#N`, the pIC50 in the test on HCT-116 was less than 5.00; in test [2], 6.68; with SU-DHL-6, 6.36; in test [1], 8.43; in test [4], 6.83; with Raji it was less than 5.00. Besides, the values for the negative-log IC50 (pIC50) (in [5]; in the test with MCF7; in the test on Ramos) were 7.74, less than 5.00 and less than 5.00, respectively.
